The values below come from the supplement of paper PMC10307832.

Experiment in all cases: relative viability (nuclei count vs DMSO), 5 days (fraction); higher = more cells survive
Compound in the assay “Ruxolitinib + Olaparib”: N#CC[C@H](C1CCCC1)n1cc(-c2ncnc3[nH]ccc23)cn1 [Ruxolitinib] + O=C(c1cc(Cc2n[nH]c(=O)c3ccccc23)ccc1F)N1CCN(C(=O)C2CC2)CC1 [Olaparib] (partner 8 µM)
The procedure, abridged:
(§1)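 A single step with final 0.05% Triton X-100, 1% formaldehyde and 1 ug/ml Hoechst fixed the cells and stained nuclei 5 days after treatment. Lung cancer cell lines in 1536-well plates had been treated by pin tool the day after seeding with one drug alone or a fixed anchor-drug dose plus five library-drug doses (not always all listed) in √10 steps, and nuclei were counted on 4× images. Relative viability is the ratio of nuclei in treated wells to nuclei in vehicle wells, taken as the median of duplicate plates.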

Compound in the assay “Vismodegib + Trametinib”: CS(=O)(=O)c1ccc(C(=O)Nc2ccc(Cl)c(-c3ccccn3)c2)c(Cl)c1 [Vismodegib] + CC(=O)Nc1cccc(-n2c(=O)n(C3CC3)c(=O)c3c(Nc4ccc(I)cc4F)n(C)c(=O)c(C)c32)c1 [Trametinib] (partner 0.02 µM)
The procedure, abridged: as §1

Compound in the assay “VE-821 + Trametinib”: CS(=O)(=O)c1ccc(-c2cnc(N)c(C(=O)Nc3ccccc3)n2)cc1 [VE-821] + CC(=O)Nc1cccc(-n2c(=O)n(C3CC3)c(=O)c3c(Nc4ccc(I)cc4F)n(C)c(=O)c(C)c32)c1 [Trametinib] (partner 0.02 µM)
The procedure, abridged: as §1

Compound in the assay “Ruxolitinib + AZD7762”: N#CC[C@H](C1CCCC1)n1cc(-c2ncnc3[nH]ccc23)cn1 [Ruxolitinib] + NC(=O)Nc1cc(-c2cccc(F)c2)sc1C(=O)N[C@H]1CCCNC1 [AZD7762] (partner 0.2 µM)
In outline: as §1

Take NCI-H520: the relative viability with Ruxolitinib + Olaparib (first compound 0.08 µM) was 0.298; with Ruxolitinib + Olaparib (first compound 0.253 µM) it was 0.375; in the assay with Ruxolitinib + Olaparib (first compound 0.8 µM), 0.366; with Ruxolitinib + Olaparib (first compound 2.53 µM), 0.343; with Ruxolitinib + Olaparib (first compound 8 µM), 0.284; with Vismodegib + Trametinib (first compound 0.08 µM) it was 0.702. Moreover, the relative viability is 0.554 with Vismodegib + Trametinib (first compound 0.253 µM); 0.768 with Vismodegib + Trametinib (first compound 0.8 µM); 0.692 with Vismodegib + Trametinib (first compound 2.53 µM); 0.74 in the assay with Vismodegib + Trametinib (first compound 8 µM); 0.752 with VE-821 + Trametinib (first compound 0.08 µM); 0.744 in the assay with VE-821 + Trametinib (first compound 0.253 µM). Further, the values for the relative viability with VE-821 + Trametinib (first compound 0.8 µM), in the assay with VE-821 + Trametinib (first compound 2.53 µM) and with VE-821 + Trametinib (first compound 8 µM) were 0.654, 0.752 and 0.44, respectively.
On to NCI-H661, for which the relative viability with Ruxolitinib + Olaparib (first compound 0.08 µM) was found to be 0.771; in the assay with Ruxolitinib + Olaparib (first compound 0.253 µM), 0.81; with Ruxolitinib + Olaparib (first compound 0.8 µM), 0.735; with Ruxolitinib + Olaparib (first compound 2.53 µM), 0.808; with Ruxolitinib + Olaparib (first compound 8 µM), 0.614; with Vismodegib + Trametinib (first compound 0.08 µM), 0.549. Also, the relative viability in the assay with Vismodegib + Trametinib (first compound 0.253 µM) was 0.611; with Vismodegib + Trametinib (first compound 0.8 µM), 0.649; with Vismodegib + Trametinib (first compound 2.53 µM), 0.558; in the assay with Vismodegib + Trametinib (first compound 8 µM) it was 0.622; in the assay with VE-821 + Trametinib (first compound 0.08 µM), 0.703; in the assay with VE-821 + Trametinib (first compound 0.253 µM), 0.536. Besides, the relative viability in the assay with VE-821 + Trametinib (first compound 0.8 µM) stood at 0.563; with VE-821 + Trametinib (first compound 2.53 µM) it was 0.658; in the assay with VE-821 + Trametinib (first compound 8 µM) it was 0.52.
As to NCI-H1299, the relative viability was determined as 0.939 in the assay with Ruxolitinib + Olaparib (first compound 0.08 µM); 0.998 with Ruxolitinib + Olaparib (first compound 0.253 µM); 0.963 with Ruxolitinib + Olaparib (first compound 0.8 µM); 0.985 with Ruxolitinib + Olaparib (first compound 2.53 µM); 0.757 with Ruxolitinib + Olaparib (first compound 8 µM).
For the cell line NCI-H1650, the relative viability with Ruxolitinib + Olaparib (first compound 0.08 µM) was determined as 0.689; in the assay with Ruxolitinib + Olaparib (first compound 0.253 µM), 0.784; with Ruxolitinib + Olaparib (first compound 0.8 µM), 0.879; in the assay with Ruxolitinib + Olaparib (first compound 2.53 µM) it was 0.836; in the assay with Ruxolitinib + Olaparib (first compound 8 µM), 0.751; in the assay with Vismodegib + Trametinib (first compound 0.08 µM), 0.621. In addition, the relative viability with Vismodegib + Trametinib (first compound 0.253 µM) is 0.522; with Vismodegib + Trametinib (first compound 0.8 µM), 0.643; with Vismodegib + Trametinib (first compound 2.53 µM), 0.606; with Vismodegib + Trametinib (first compound 8 µM), 0.666; in the assay with VE-821 + Trametinib (first compound 0.08 µM), 0.869; with VE-821 + Trametinib (first compound 0.253 µM) it was 0.453. Further, the figures for the relative viability with VE-821 + Trametinib (first compound 0.8 µM), in the assay with VE-821 + Trametinib (first compound 2.53 µM) and in the assay with VE-821 + Trametinib (first compound 8 µM) were 0.668, 0.586 and 0.402, respectively.
In the case of NCI-H1703, the relative viability in the assay with Ruxolitinib + Olaparib (first compound 0.08 µM) came to 0.44; in the assay with Ruxolitinib + Olaparib (first compound 0.253 µM), 0.439; with Ruxolitinib + Olaparib (first compound 0.8 µM), 0.55; with Ruxolitinib + Olaparib (first compound 2.53 µM) it was 0.237; with Ruxolitinib + Olaparib (first compound 8 µM), 0.315; with Ruxolitinib + AZD7762 (first compound 0.08 µM) it was 0.127. Moreover, the relative viability with Ruxolitinib + AZD7762 (first compound 0.253 µM) was determined as 0.126; in the assay with Ruxolitinib + AZD7762 (first compound 0.8 µM) it was 0.143; in the assay with Ruxolitinib + AZD7762 (first compound 8 µM), 0.115.
As to NCI-H2009, the relative viability with Ruxolitinib + Olaparib (first compound 0.08 µM) was 0.701; with Ruxolitinib + Olaparib (first compound 0.253 µM) it was 0.712; with Ruxolitinib + Olaparib (first compound 0.8 µM) it was 0.684; in the assay with Ruxolitinib + Olaparib (first compound 2.53 µM) it was 0.575; with Ruxolitinib + Olaparib (first compound 8 µM), 0.482; with Vismodegib + Trametinib (first compound 0.08 µM), 0.313. Further, the relative viability with Vismodegib + Trametinib (first compound 0.253 µM) was determined as 0.321; with Vismodegib + Trametinib (first compound 0.8 µM), 0.309; with Vismodegib + Trametinib (first compound 2.53 µM), 0.291; with Vismodegib + Trametinib (first compound 8 µM) it was 0.331; with VE-821 + Trametinib (first compound 0.08 µM) it was 0.266; in the assay with VE-821 + Trametinib (first compound 0.253 µM) it was 0.287. The relative viability was found to be 0.254 with VE-821 + Trametinib (first compound 0.8 µM), 0.263 in the assay with VE-821 + Trametinib (first compound 2.53 µM) and 0.174 with VE-821 + Trametinib (first compound 8 µM).
On to NCI-H2023, for which the relative viability with Ruxolitinib + Olaparib (first compound 0.08 µM) came out at 0.483; with Ruxolitinib + Olaparib (first compound 0.253 µM) it was 0.604; in the assay with Ruxolitinib + Olaparib (first compound 0.8 µM) it was 0.509; in the assay with Ruxolitinib + Olaparib (first compound 2.53 µM) it was 0.515; with Ruxolitinib + Olaparib (first compound 8 µM), 0.339; with Vismodegib + Trametinib (first compound 0.08 µM) it was 0.568. Also, the relative viability with Vismodegib + Trametinib (first compound 0.253 µM) was 0.538; in the assay with Vismodegib + Trametinib (first compound 0.8 µM), 0.605; in the assay with Vismodegib + Trametinib (first compound 2.53 µM) it was 0.47; with Vismodegib + Trametinib (first compound 8 µM), 0.498; with VE-821 + Trametinib (first compound 0.08 µM), 0.575; in the assay with VE-821 + Trametinib (first compound 0.253 µM) it was 0.488. In addition, the relative viability stood at 0.349 with VE-821 + Trametinib (first compound 0.8 µM), 0.252 with VE-821 + Trametinib (first compound 2.53 µM) and 0.181 in the assay with VE-821 + Trametinib (first compound 8 µM).
Consider NCI-H2228, for which the relative viability in the assay with Ruxolitinib + Olaparib (first compound 0.08 µM) came to 0.58; with Ruxolitinib + Olaparib (first compound 0.253 µM), 0.847; with Ruxolitinib + Olaparib (first compound 0.8 µM) it was 0.576; with Ruxolitinib + Olaparib (first compound 2.53 µM), 0.614; with Ruxolitinib + Olaparib (first compound 8 µM) it was 0.592; in the assay with Vismodegib + Trametinib (first compound 0.08 µM), 0.368. Besides, the relative viability in the assay with Vismodegib + Trametinib (first compound 0.253 µM) amounted to 0.42; with Vismodegib + Trametinib (first compound 0.8 µM), 0.484; with Vismodegib + Trametinib (first compound 2.53 µM), 0.417; in the assay with Vismodegib + Trametinib (first compound 8 µM), 0.585; with VE-821 + Trametinib (first compound 0.08 µM), 0.51; with VE-821 + Trametinib (first compound 0.253 µM), 0.645. The relative viability in the assay with VE-821 + Trametinib (first compound 0.8 µM) came to 0.354; with VE-821 + Trametinib (first compound 2.53 µM), 0.644; with VE-821 + Trametinib (first compound 8 µM), 0.382.
On to SK-LU-1, for which the relative viability in the assay with Ruxolitinib + Olaparib (first compound 0.08 µM) is 0.428; in the assay with Ruxolitinib + Olaparib (first compound 0.253 µM), 0.456; in the assay with Ruxolitinib + Olaparib (first compound 0.8 µM), 0.572; with Ruxolitinib + Olaparib (first compound 2.53 µM), 0.381; in the assay with Ruxolitinib + Olaparib (first compound 8 µM), 0.359; in the assay with Vismodegib + Trametinib (first compound 0.08 µM) it was 0.441. Further, the relative viability with Vismodegib + Trametinib (first compound 0.253 µM) came out at 0.473; with Vismodegib + Trametinib (first compound 0.8 µM), 0.54; in the assay with Vismodegib + Trametinib (first compound 2.53 µM), 0.441; with Vismodegib + Trametinib (first compound 8 µM), 0.444; with VE-821 + Trametinib (first compound 0.08 µM), 0.495; in the assay with VE-821 + Trametinib (first compound 0.253 µM), 0.53. The relative viability with VE-821 + Trametinib (first compound 0.8 µM) came to 0.387; with VE-821 + Trametinib (first compound 2.53 µM), 0.547; with VE-821 + Trametinib (first compound 8 µM) it was 0.291.
With SK-MES-1, the relative viability with Ruxolitinib + Olaparib (first compound 0.08 µM) worked out at 0.766; with Ruxolitinib + Olaparib (first compound 0.253 µM), 0.639; in the assay with Ruxolitinib + Olaparib (first compound 0.8 µM), 0.713; with Ruxolitinib + Olaparib (first compound 2.53 µM), 0.563; with Ruxolitinib + Olaparib (first compound 8 µM), 0.597; in the assay with Vismodegib + Trametinib (first compound 0.08 µM), 0.574. Further, the relative viability in the assay with Vismodegib + Trametinib (first compound 0.253 µM) amounted to 0.504; with Vismodegib + Trametinib (first compound 0.8 µM), 0.553; in the assay with Vismodegib + Trametinib (first compound 2.53 µM), 0.558; with Vismodegib + Trametinib (first compound 8 µM) it was 0.545; in the assay with VE-821 + Trametinib (first compound 0.08 µM) it was 0.609; with VE-821 + Trametinib (first compound 0.253 µM), 0.516. For the same cell line, the relative viability with VE-821 + Trametinib (first compound 0.8 µM) was determined as 0.462; with VE-821 + Trametinib (first compound 2.53 µM) it was 0.471; with VE-821 + Trametinib (first compound 8 µM), 0.455.
SW 1573: the relative viability came to 0.518 in the assay with Ruxolitinib + Olaparib (first compound 0.08 µM); 0.586 with Ruxolitinib + Olaparib (first compound 0.253 µM); 0.473 with Ruxolitinib + Olaparib (first compound 0.8 µM); 0.416 in the assay with Ruxolitinib + Olaparib (first compound 2.53 µM); 0.352 with Ruxolitinib + Olaparib (first compound 8 µM); 0.571 with Vismodegib + Trametinib (first compound 0.08 µM). Further, the relative viability in the assay with Vismodegib + Trametinib (first compound 0.253 µM) is 0.522; in the assay with Vismodegib + Trametinib (first compound 0.8 µM), 0.609; with Vismodegib + Trametinib (first compound 2.53 µM) it was 0.548; with Vismodegib + Trametinib (first compound 8 µM), 0.552; with VE-821 + Trametinib (first compound 0.08 µM), 0.53; with VE-821 + Trametinib (first compound 0.253 µM) it was 0.627. The figures for the relative viability with VE-821 + Trametinib (first compound 0.8 µM), in the assay with VE-821 + Trametinib (first compound 2.53 µM) and in the assay with VE-821 + Trametinib (first compound 8 µM) were 0.574, 0.547 and 0.378, respectively.
